From PMC10569036

Assay: shake flask on a mixture of 185; loss from the water phase only; LC-Orbitrap peak areas
Settings: room

Row | SMILES | log partition 1-octanol / HPLC water, unbuffered, traces of methanol / DMSO | log partition butyl acetate / HPLC water, unbuffered, traces of methanol / DMSO | log partition chloroform / HPLC water, unbuffered, traces of methanol / DMSO | log partition cyclohexane / HPLC water, unbuffered, traces of methanol / DMSO | log partition dichloromethane / HPLC water, unbuffered, traces of methanol / DMSO | log partition n-hexane / HPLC water, unbuffered, traces of methanol / DMSO | log partition n-octane / HPLC water, unbuffered, traces of methanol / DMSO | log partition n-undecane / HPLC water, unbuffered, traces of methanol / DMSO | log partition oleylalcohol / HPLC water, unbuffered, traces of methanol / DMSO | log partition toluene / HPLC water, unbuffered, traces of methanol / DMSO
1 | CCCC1COC(Cn2cncn2)(c2ccc(Cl)cc2Cl)O1 (centres unmarked) | 0.3483 log10 | 0.1767 log10 | 0.2115 log10 | 0.2977 log10 | 0.2897 log10 | 0.2474 log10 | 0.3088 log10 | 0.1588 log10 | 0.003105 log10 | 0.07569 log10
2 | O=C(OC1CCCCC1)c1ccccc1C(=O)OC1CCCCC1 | 0.6596 log10 | 0.2225 log10 | 0.1245 log10 | -0.9365 log10 | 0.1411 log10 | -0.6432 log10 | -1.045 log10 | -0.8058 log10 | -0.79 log10 | -1.067 log10
3 | NC(=O)N/N=C/c1ccc([N+](=O)[O-])o1 | 1.712 log10 | 0.5487 log10 | 0.2279 log10 |  | 0.3361 log10 |  |  |  | 0.1785 log10 | -0.2455 log10
4 | N#CC(c1ccccc1)c1ccccc1 | -0.3597 log10 | 0.2978 log10 | -0.002518 log10 | -0.2823 log10 | 0.1658 log10 | -0.257 log10 | -0.2917 log10 | -0.816 log10 | 0.1292 log10 | 0.1711 log10
5 | CCOc1ccc2c(c1)C(C)CC(C)(C)N2 (centres unmarked) | 1.166 log10 | 0.4802 log10 | 0.1266 log10 | 0.1355 log10 | 0.03099 log10 | 0.4617 log10 | 0.03342 log10 | 0.09286 log10 | 0.8298 log10 | -0.1412 log10
6 | C=CC(=O)OCC1CC2CC1C1CCC(COC(=O)C=C)C21 (centres unmarked) | 0.2948 log10 | -0.12 log10 | 0.01457 log10 | -0.1351 log10 | 0.05615 log10 | -0.1023 log10 | -0.1158 log10 | 0.0297 log10 | 0.1091 log10 | 0.1587 log10
